Laboratory results: patent publication US20260273084A1, “ANTIBODY-DRUG CONJUGATES” (ADC THERAPEUTICS SA, priority 2023, published 2026)
Numbered stars: 1 amine (or outer) side, 2 acyl side, 3 side chain; on linkers, the order of the positions; unused ones are H or OH. Square brackets hold non-standard residues; d marks the D form. Peptide text beside a SMILES is read from it. * marks the point of attachment. Exatecan = CC[C@@]1(O)C(=O)OCc2c1cc1n(c2=O)Cc2c-1nc1cc(F)c(C)c3c1c2[C@@H](N*)CC3; Propanoyl(3-maleimido) = O=C1C=CC(=O)N1CCC(=O)*; PABC = O=C(OCc1ccc(N[*:1])cc1)[*:2]

Test: Aggregation studies: % monomer by SEC after conjugation to test monoclonal antibody
Type: physicochemical
Settings: 95% monomer or greater assessed as low aggregation
Procedure: Aggregation is a process in which molecules self-associate with each other. In the context of the present invention, aggregation levels are assessed during the conjugation of a linker construct to an antibody. During conjugation, aggregation is quantified in terms of percentage monomer content. High percentage monomer values typically equate to a lower degree of aggregation. Percentage monomer values of 93% or 95% or higher typically mean negligible levels of aggregation or none, whereas values below this threshold typically translate to higher levels of aggregation.
2 mg of test monoclonal antibody at 8.87 mg/mL was pH adjusted with 5% 0.5 M Tris, 0.025 M EDTA, pH 8.5 and reduced with 2.3 mol. eq TCEP and then conjugated with 6 mol. eq drug linker. […] Percentage monomer values of 95% or greater are assessed as low aggregation.
Aggregation levels were assessed during the conjugation to the test antibody.
During conjugation, we are ideally targeting a monomer content or percentage monomer of 95% or above. Low percentage monomer values usually translate to a higher degree of aggregation. One could therefore agree that percentage monomer values of 95% or higher mean very low levels of aggregation or none, whereas values below this threshold often translate to higher levels of aggregation.

CC[C@@]1(O)C(=O)OCc2c1cc1n(c2=O)Cc2c-1nc1cc(F)c(C)c3c1c2[C@@H](NC(=O)OCc1ccc(NC(=O)[C@H](C)NC(=O)[C@@H](NC(=O)CNC(=O)CNC(=O)CNC(=O)CNC(=O)CNC(=O)CCN2C(=O)C=CC2=O)C(C)C)cc1)CC3 [Mal-Gly5-VA-PABC-Exatecan] ({Propanoyl(3-maleimido)}-GGGGGVA[PABC]-Exatecan)
Aggregation (grade in words): None
